Structures can show the parent of a compound that is named as a salt. Where two headings read alike, the source gives them in different places.
Tests used:
S. aureus Smith = assay: In vitro antibacterial activity, MIC (standard strain); format: cell-based, Staphylococcus aureus
[1] = tested on: S. aureus IID 670 (Terajima); assay: as above; format: cell-based, Staphylococcus aureus; conditions: Staphylococcus aureus, IID670, S. aureus IID 670 (Terajima); 10^6 cells/ml; standard strain; read-out: MIC
[2] = tested on: Streptococcus pyogenes S-8; assay: as above; format: cell-based; conditions: S8; Streptococcus pyogenes S-8; 10^6 cells/ml; standard strain; read-out: MIC
S. pyogenes IID 692 = assay: as above; format: cell-based; conditions: Streptococcus pyogenes, IID692; S. pyogenes IID 692; 10^6 cells/ml; standard strain; read-out: MIC
S. pneumoniae IID 552 = assay: as above; format: cell-based; conditions: Streptococcus pneumoniae, IID552; S. pneumoniae IID 552; 10^6 cells/ml; standard strain; read-out: MIC
S. faecalis IID 682 = assay: as above; format: cell-based; conditions: Enterococcus faecalis, IID682; S. faecalis IID 682; 10^6 cells/ml; standard strain; read-out: MIC
E. coli ATCC 10536 = assay: as above; format: cell-based; conditions: Escherichia coli, ATCC10536; E. coli ATCC 10536; 10^6 cells/ml; standard strain; read-out: MIC
[3] = tested on: Morganella morganii IID 602; assay: as above; format: cell-based; conditions: IID602; Morganella morganii IID 602; 10^6 cells/ml; standard strain; read-out: MIC
[4] = tested on: Enterobacter cloacae IID 977; assay: as above; format: cell-based; conditions: Enterobacter cloacae, IID977, Enterobacter cloacae IID 977; 10^6 cells/ml; standard strain; read-out: MIC
[5] = tested on: Salmonella entritidis IID 604; assay: as above; format: cell-based; conditions: IID604; Salmonella entritidis IID 604; 10^6 cells/ml; standard strain; read-out: MIC
Shigella sonnei IID 969 = assay: as above; format: cell-based; conditions: IID969, 10^6 cells/ml
Procedure: Experiment-1 In vitro antibacterial activity
The in vitro antibacterial activity against gram-positive and gram-negative bacteria has been investivated.
The minimum inhibitory concentration (MIC) was determined in accordance with the method recommended by Japan Society of Chemotherapy.

[6] = tested on: Yersinia enterocolitica IID 981; assay: as above; format: cell-based; conditions: IID981; Yersinia enterocolitica IID 981; 10^6 cells/ml; standard strain; read-out: MIC
S. marcescens GN 7577 = assay: as above; format: cell-based; conditions: Serratia marcescens, GN7577; S. marcescens GN 7577; 10^6 cells/ml; standard strain; read-out: MIC
P. aeruginosa IFO 12689 = assay: as above; format: cell-based, Pseudomonas aeruginosa; conditions: Pseudomonas aeruginosa, IFO12689; P. aeruginosa IFO 12689; 10^6 cells/ml; standard strain; read-out: MIC
[7] = tested on: Acinetobacter anitratus IID 876; assay: as above; format: cell-based; conditions: Acinetobacter calcoaceticus, IID876, Acinetobacter anitratus IID 876; 10^6 cells/ml; standard strain; read-out: MIC
[8] = tested on: Bacteroides fragilis GM 7000; assay: as above; format: cell-based; conditions: GM7000; Bacteroides fragilis GM 7000; 10^6 cells/ml; standard strain; read-out: MIC
B. fragilis 0558 = assay: as above; format: cell-based, Bacteroides fragilis; conditions: Bacteroides fragilis, 0558, B. fragilis 0558; 10^6 cells/ml; standard strain; read-out: MIC
[9] = tested on: Clostridium perfringens KYA 13123; assay: microbe, parasite or virus in culture; format: cell-based; conditions: KYA13123
S. pneumoniae 15 = assay: In vitro antibacterial activity, MIC (clinical isolates); format: cell-based; conditions: Streptococcus pneumoniae; S. pneumoniae 15; 10^6 cells/ml; clinical isolate; read-out: MIC
S. pneumoniae 2054 = assay: as above; format: cell-based; conditions: Streptococcus pneumoniae; S. pneumoniae 2054; 10^6 cells/ml; clinical isolate; read-out: MIC
S. pneumoniae 2950 = assay: as above; format: cell-based; conditions: Streptococcus pneumoniae; S. pneumoniae 2950; 10^6 cells/ml; clinical isolate; read-out: MIC
S. pneumoniae 3227 = assay: as above; format: cell-based; conditions: Streptococcus pneumoniae; S. pneumoniae 3227; 10^6 cells/ml; clinical isolate; read-out: MIC
S. pyogenes 3107 = assay: as above; format: cell-based; conditions: Streptococcus pyogenes; S. pyogenes 3107; 10^6 cells/ml; clinical isolate; read-out: MIC
S. pyogenes 4340 = assay: as above; format: cell-based; conditions: Streptococcus pyogenes; S. pyogenes 4340; 10^6 cells/ml; clinical isolate; read-out: MIC
S. agalactiae 4342 = assay: as above; format: cell-based; conditions: Streptococcus agalactiae; S. agalactiae 4342; 10^6 cells/ml; clinical isolate; read-out: MIC
S. agalactiae 4470 = assay: as above; format: cell-based; conditions: Streptococcus agalactiae; S. agalactiae 4470; 10^6 cells/ml; clinical isolate; read-out: MIC
S. agalactiae 4468 = assay: as above; format: cell-based; conditions: Streptococcus agalactiae; S. agalactiae 4468; 10^6 cells/ml; clinical isolate; read-out: MIC
S. faecalis 49 = assay: as above; format: cell-based; conditions: Enterococcus faecalis; S. faecalis 49; 10^6 cells/ml; clinical isolate; read-out: MIC
S. faecalis 214 = assay: as above; format: cell-based; conditions: Enterococcus faecalis; S. faecalis 214; 10^6 cells/ml; clinical isolate; read-out: MIC
S. faecalis 402 = assay: as above; format: cell-based; conditions: Enterococcus faecalis; S. faecalis 402; 10^6 cells/ml; clinical isolate; read-out: MIC
[10] = Staphylococcus aureus, S. aureus Smith, 10^6 cells/ml, standard strain, read-out: MIC

Measured: MIC

CCNCC1CCN(c2c(F)cc3c(=O)c(C(=O)O)cn(C4CC4)c3c2F)C1 (stereo not drawn) [Example 2, l-Cyclopropyl-7-(3-ethylaminomethyl-l-pyrrolidinyl)-6,8-difluoro-l,4-dihydro-4-oxo-3-quinolinecarboxylic acid hydrochloride]
0.05 µg/mL: [5] | [7] | S. pneumoniae 15 | S. pyogenes 3107
1.56 µg/mL: S. marcescens GN 7577 | P. aeruginosa IFO 12689 | [8]
0.39 µg/mL: [9]
0.025 µg/mL: S. aureus Smith; MIC column of Table 3-1, beside ED50 against S. aureus Smith | S. aureus Smith; [10] | [1] | E. coli ATCC 10536 | Shigella sonnei IID 969
0.2 µg/mL: S. pyogenes IID 692 | S. faecalis IID 682 | S. faecalis 49 | S. faecalis 214 | S. faecalis 402
0.78 µg/mL: B. fragilis 0558
0.1 µg/mL: [2] | S. pneumoniae IID 552 | [3] | [4] | [6] | S. pneumoniae 2054 | S. pneumoniae 2950 | S. pneumoniae 3227 | S. pyogenes 4340 | S. agalactiae 4342 | S. agalactiae 4470 | S. agalactiae 4468

CCNCC1CCN(c2cc3c(cc2F)c(=O)c(C(=O)O)cn3C2CC2)C1.Cl (stereo not shown) [Example 7, 1-Cyclopropyl-7-(3-ethylaminomethyl-1-pyrrolidinyl)-6-fluoro-1,4-dihydro-4-oxo-3-quinolinecarboxylic acid hydrochloride]
0.39 µg/mL: [2] | S. pyogenes IID 692 | S. pneumoniae IID 552 | S. faecalis IID 682 | [3] | [4] | [6] | S. pneumoniae 15 | S. pneumoniae 2054 | S. pneumoniae 2950 | S. pneumoniae 3227 | S. agalactiae 4342 | S. agalactiae 4470 | S. agalactiae 4468
0.05 µg/mL: E. coli ATCC 10536 | Shigella sonnei IID 969
6.25 µg/mL: S. marcescens GN 7577
0.78 µg/mL: [7] | S. faecalis 49 | S. faecalis 214 | S. faecalis 402
0.1 µg/mL: S. aureus Smith; [10] | [1]
0.2 µg/mL: [5] | [9] | S. pyogenes 3107 | S. pyogenes 4340
25 µg/mL: [8] | B. fragilis 0558
3.13 µg/mL: P. aeruginosa IFO 12689

CNCC1CCN(c2cc3c(cc2F)c(=O)c(C(=O)O)cn3C2CC2)C1 (stereo not drawn) [Example 9, 1-Cyclopropyl-6-fluoro-1,4-dihydro-7-(3-methylaminomethyl-l-pyrrolidinyl)-4-oxo-3-quinolinecarboxylic acid hydrochloride]
0.2 µg/mL: [1] | [2] | S. pyogenes IID 692 | [5] | S. pyogenes 4340
3.13 µg/mL: P. aeruginosa IFO 12689
12.5 µg/mL: B. fragilis 0558
25 µg/mL: [8]
1.56 µg/mL: [9]
6.25 µg/mL: S. marcescens GN 7577
0.39 µg/mL: S. aureus Smith; [10] | S. pneumoniae IID 552 | S. faecalis IID 682 | [4] | [6] | S. pneumoniae 15 | S. pneumoniae 3227 | S. agalactiae 4342 | S. agalactiae 4470 | S. agalactiae 4468 | S. faecalis 49 | S. faecalis 214
0.1 µg/mL: E. coli ATCC 10536 | Shigella sonnei IID 969 | S. pyogenes 3107
0.78 µg/mL: [3] | [7] | S. pneumoniae 2054 | S. pneumoniae 2950 | S. faecalis 402

CCCNCC1CCN(c2c(F)cc3c(=O)c(C(=O)O)cn(C4CC4)c3c2F)C1 (stereo not drawn) [Example 10, 1-Cyclopropyl-6,8-difluoro-1,4-dihydro-4-oxo-7-(3-n-propylaminomethyl-l-pyrrolidinyl)-3-quinolinecarboxylic acid hydrochloride]
0.2 µg/mL: [4] | S. pneumoniae 3227 | S. pyogenes 3107 | S. pyogenes 4340 | S. agalactiae 4342
3.13 µg/mL: S. marcescens GN 7577 | P. aeruginosa IFO 12689
1.56 µg/mL: [8]
0.1 µg/mL: E. coli ATCC 10536 | [5] | [6]
0.025 µg/mL: [3] | Shigella sonnei IID 969
0.39 µg/mL: [2] | S. pyogenes IID 692 | S. pneumoniae IID 552 | S. faecalis IID 682 | [9] | S. pneumoniae 15 | S. pneumoniae 2950 | S. agalactiae 4470 | S. agalactiae 4468 | S. faecalis 49 | S. faecalis 214 | S. faecalis 402
0.78 µg/mL: B. fragilis 0558 | S. pneumoniae 2054
0.05 µg/mL: S. aureus Smith; [10] | [1] | [7]

CC(C)NCC1CCN(c2c(F)cc3c(=O)c(C(=O)O)cn(C4CC4)c3c2F)C1.Cl (stereo not shown) [Example 11, 1-Cyclopropyl-6,8-difluoro-1,4-dihydro-7-(3-isopropylaminomethyl-1-pyrrolidinyl)-4-oxo-3-quinolinecarboxylic acid hydrochloride]
3.13 µg/mL: S. marcescens GN 7577 | P. aeruginosa IFO 12689
0.39 µg/mL: S. pneumoniae IID 552 | S. faecalis IID 682 | [3] | [4] | S. pneumoniae 3227 | S. faecalis 214 | S. faecalis 402
0.1 µg/mL: [7]
0.2 µg/mL: [2] | S. pyogenes IID 692 | [5] | [6] | [9] | S. pneumoniae 15 | S. pneumoniae 2054 | S. pneumoniae 2950 | S. pyogenes 3107 | S. pyogenes 4340 | S. agalactiae 4342 | S. agalactiae 4470 | S. agalactiae 4468 | S. faecalis 49
1.56 µg/mL: [8]
0.78 µg/mL: B. fragilis 0558
0.05 µg/mL: S. aureus Smith; [10] | [1] | E. coli ATCC 10536 | Shigella sonnei IID 969
